Bridge positions count the residues as written; N and C are the ends. Square brackets hold non-standard residues; d marks the D form. Peptide text beside a SMILES is read from it. * marks the point of attachment. 5TAMRA = CN(C)c1ccc2c(c1)Oc1cc(N(C)C)ccc1C21OC(=O)c2cc(C(=O)*)ccc21; 2Nal = N[C@@H](Cc1ccc2ccccc2c1)C(=O)O; Pen = CC(C)(S)[C@H](N)C(=O)O; Aib = CC(C)(N)C(=O)O
Key:
[1] = target: T1, NL-IL23R (Homo sapiens, UniProt Q5VWK5); assay: P630-TMR NanoBRET binding assay, NL-IL23R alone; conditions: for BRET ratio, Specific (Mean) / BRET ratio, Non-specific (Mean): Fig. 2c; for BRET ratio, Non-specific (Mean): with 10 μM P630; for BRET ratio with non-specific binding subtracted (Mean): Figure 2 sheet Panel f; for BRET ratio with non-specific binding subtracted (Mean) / % maximum BRET ratio / % of P630-TMR specific Bmax (Mean): NL-IL23R; for % maximum BRET ratio / % of P630-TMR specific Bmax (Mean): Figure 2 sheet Panel g, Fig. 3d
T1 construct: expressed in transfected cells; host or cells: HEK293T, transient transfection
T1 sequence (Q5VWK5 24-629): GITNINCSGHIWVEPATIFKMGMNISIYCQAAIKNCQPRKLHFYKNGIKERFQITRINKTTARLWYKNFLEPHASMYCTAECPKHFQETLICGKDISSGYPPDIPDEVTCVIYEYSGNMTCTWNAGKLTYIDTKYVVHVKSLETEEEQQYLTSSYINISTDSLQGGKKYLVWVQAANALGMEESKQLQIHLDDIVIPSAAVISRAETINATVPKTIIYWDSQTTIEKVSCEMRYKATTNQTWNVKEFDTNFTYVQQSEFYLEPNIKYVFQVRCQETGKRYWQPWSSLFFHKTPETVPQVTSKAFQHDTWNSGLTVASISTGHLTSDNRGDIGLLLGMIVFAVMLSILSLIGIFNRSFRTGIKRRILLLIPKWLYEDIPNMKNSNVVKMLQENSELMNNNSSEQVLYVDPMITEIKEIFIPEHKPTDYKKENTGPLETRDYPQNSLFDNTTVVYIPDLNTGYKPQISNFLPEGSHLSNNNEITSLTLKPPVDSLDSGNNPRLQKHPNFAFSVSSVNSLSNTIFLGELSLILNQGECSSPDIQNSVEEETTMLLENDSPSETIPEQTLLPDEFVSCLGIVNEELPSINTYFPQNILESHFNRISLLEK
From the text: (§1) A standard curve was used to predict the expression level of NanoLuc labelled receptor in each experiment (Supplementary Fig. 1).
(§2) Fig. 2 Creation and characterisation of a fluorescent cyclic peptide probe for IL23R. […] Data are normally mean ± SEM from five independent experiments. Details on absolute number of data points included for each concentration are provided in the associated Source Data file. In each individual saturation experiment triplicate determinations were normally made for total binding and duplicate measurements were made for non-specific binding.
(§3) Media was removed from white 96-well microplates containing transfected cells and replaced with fluoroprobe in the presence or absence of antagonist in 50 μL Hanks Balanced Salt Solution (HBSS) with 1 mg/mL BSA (Merck). After a 1-hour incubation at 37 °C without CO2, 5 μL of HBSS containing 77 μM furimizine was added to each well (final concentration 7 μM), the plate incubated for 5-minutes and the BRET signal measured using a PheraStar FS plate reader (BMG Labtech; data acquisition software version 5.41; MARS analysis software version 3.32) with a 450 ± 30 nm and >550 nm long pass filters.
(§4) Ligand binding data were fitted with the equation:2 BRETratio=Bmax[A]/([A]+KD)+(BA+C). Where ‘Bmax’ is the maximum specific binding BRET signal, ‘[A]’ is fluorescent probe concentration, ‘B’ is the non-specific binding component’s slope and ‘C’ is the Y intercept.
(§5) Specific binding data was generated by subtracting the BRET values gained in the presence of an excess of unlabelled probe from the BRET ratios gained in the absence of unlabelled probe. Specific binding data were fit using the equation:3 Y=Bmax[B]/(B+KD) where ‘Bmax’ is the maximum specific binding signal of the curve and ‘[B]’ is the concentration of fluorescent probe.

[2] = target: T2, NL-IL23R with IL12Rβ1 (Homo sapiens, UniProt P42701+Q5VWK5); assay: P630-TMR NanoBRET binding assay, NL-IL23R with IL12Rβ1; conditions: for BRET ratio, Specific (Mean) / BRET ratio, Non-specific (Mean): Fig. 2d, NL-IL23R with IL12Rβ1; for BRET ratio, Non-specific (Mean): with 10 μM P630; for BRET ratio with non-specific binding subtracted (Mean): Figure 2 sheet Panel f; for BRET ratio with non-specific binding subtracted (Mean) / % maximum BRET ratio / % of P630-TMR specific Bmax (Mean): NL-IL23R + IL12RB1; for % maximum BRET ratio / % of P630-TMR specific Bmax (Mean): Figure 2 sheet Panel g, Fig. 3d; for Mean NanoBRET binding signal (Figure 7 panel b): NL-IL23R +IL12RB1
T2 construct: expressed in transfected cells; host or cells: HEK293T (ATCC CRL-3216), transient transfection
From the text: as §1, §2, §3, §4, §5

[3] = NL-IL23R alone, P630-TMR 0.457247 nM
[4] = NL-IL23R alone, P630-TMR 1.37174 nM
[5] = NL-IL23R alone, P630-TMR 4.11523 nM
[6] = NL-IL23R alone, P630-TMR 12.3457 nM
[7] = NL-IL23R alone, P630-TMR 37.037 nM
[8] = NL-IL23R alone, P630-TMR 111.111 nM
[9] = NL-IL23R alone, P630-TMR 1000 nM
[10] = NL-IL23R alone, P630-TMR 3000 nM

COc1ccc(C[C@H](NC(=O)[C@H]2NC(=O)[C@H](CCC(N)=O)NC(=O)[C@H](Cc3c[nH]c4ccccc34)NC(=O)[C@H]([C@@H](C)O)NC(=O)[C@H](CC(N)=O)NC(=O)[C@@H](NC(C)=O)C(C)(C)SSC2(C)C)C(=O)N[C@@H](Cc2ccc3ccccc3c2)C(=O)NC(C)(C)C(=O)N[C@@H](CCC(=O)O)C(=O)N[C@@H](CC(N)=O)C(=O)N[C@@H](CC(N)=O)C(=O)N[C@@H](CCCCNC(=O)c2ccc3c(c2)C(=O)OC32c3ccc(N(C)C)cc3Oc3cc(N(C)C)ccc32)C(N)=O)cc1 [P630-TMR] (Ac-[Pen]NTWQ[Pen]Y(Me)[2Nal][Aib]ENNK(5TAMRA)-NH2; disulfide 1-6)
BRET ratio, Specific (Mean) [1, 3]: 0.2582
BRET ratio, Specific (Mean) [1, 4]: 0.3055
BRET ratio, Specific (Mean) [1, 5]: 0.425
BRET ratio, Specific (Mean) [1, 6]: 0.7682
BRET ratio, Specific (Mean) [1, 7]: 1.473
BRET ratio, Specific (Mean) [1, 8]: 2.644
BRET ratio, Specific (Mean) [1, 9]: 4.095
BRET ratio, Specific (Mean) [1, 10]: 5.137
BRET ratio, Non-specific (Mean) [1, 3]: 0.2458
BRET ratio, Non-specific (Mean) [1, 4]: 0.2417
BRET ratio, Non-specific (Mean) [1, 5]: 0.2509
BRET ratio, Non-specific (Mean) [1, 6]: 0.245
BRET ratio, Non-specific (Mean) [1, 7]: 0.2505
BRET ratio, Non-specific (Mean) [1, 8]: 0.2646
BRET ratio, Non-specific (Mean) [1, 9]: 0.4272
BRET ratio, Non-specific (Mean) [1, 10]: 0.8664
BRET ratio, Non-specific (Mean) ([1]; NL-IL23R alone, P630-TMR […]): 0.2988
BRET ratio with non-specific binding subtracted (Mean) ([1]; P630-TMR 0.457247 nM): 0.01938
BRET ratio with non-specific binding subtracted (Mean) ([1]; P630-TMR 1.37174 nM): 0.8164
BRET ratio with non-specific binding subtracted (Mean) ([1]; P630-TMR 4.11523 nM): 2.963
BRET ratio with non-specific binding subtracted (Mean) ([1]; P630-TMR 12.3457 nM): 2.778
BRET ratio with non-specific binding subtracted (Mean) ([1]; P630-TMR 37.037 nM): 2.936
BRET ratio with non-specific binding subtracted (Mean) ([1]; P630-TMR 111.111 nM): 9.572
BRET ratio with non-specific binding subtracted (Mean) ([1]; P630-TMR 1000 nM): 15.1461
BRET ratio with non-specific binding subtracted (Mean) ([1]; P630-TMR 3000 nM): 19.8619
% maximum BRET ratio / % of P630-TMR specific Bmax (Mean) ([1]; P630-TMR 0.457247 nM): 0.5534%
% maximum BRET ratio / % of P630-TMR specific Bmax (Mean) ([1]; P630-TMR 1.37174 nM): 1.759%
% maximum BRET ratio / % of P630-TMR specific Bmax (Mean) ([1]; P630-TMR 4.11523 nM): 4.853%
% maximum BRET ratio / % of P630-TMR specific Bmax (Mean) ([1]; P630-TMR 12.3457 nM): 14.5245%
% maximum BRET ratio / % of P630-TMR specific Bmax (Mean) ([1]; P630-TMR 37.037 nM): 33.5672%
% maximum BRET ratio / % of P630-TMR specific Bmax (Mean) ([1]; P630-TMR 111.111 nM): 64.3078%
% maximum BRET ratio / % of P630-TMR specific Bmax (Mean) ([1]; P630-TMR 1000 nM): 100.336%
% maximum BRET ratio / % of P630-TMR specific Bmax (Mean) ([1]; P630-TMR 3000 nM): 99.0015%
Kd ([1]; NL-IL23R alone, mean ± SEM): 101 ± 4 nM
Bmax, fold higher than NL-IL23R with IL12Rβ1 ([1]; NL-IL23R in isolation): 4.04 fold
BRET ratio, Specific (Mean) ([2]; P630-TMR 0.457247 nM): 0.2512
BRET ratio, Specific (Mean) ([2]; P630-TMR 1.37174 nM): 0.271
BRET ratio, Specific (Mean) ([2]; P630-TMR 4.11523 nM): 0.315
BRET ratio, Specific (Mean) ([2]; P630-TMR 12.3457 nM): 0.4472
BRET ratio, Specific (Mean) ([2]; P630-TMR 37.037 nM): 0.6615
BRET ratio, Specific (Mean) ([2]; P630-TMR 111.111 nM): 1.003
BRET ratio, Specific (Mean) ([2]; P630-TMR 1000 nM): 1.323
BRET ratio, Specific (Mean) ([2]; P630-TMR 3000 nM): 1.6368
BRET ratio, Non-specific (Mean) ([2]; P630-TMR 0.457247 nM): 0.2426
BRET ratio, Non-specific (Mean) ([2]; P630-TMR 1.37174 nM): 0.2389
BRET ratio, Non-specific (Mean) ([2]; P630-TMR 4.11523 nM): 0.241
BRET ratio, Non-specific (Mean) ([2]; P630-TMR 12.3457 nM): 0.2439
BRET ratio, Non-specific (Mean) ([2]; P630-TMR 37.037 nM): 0.2477
BRET ratio, Non-specific (Mean) ([2]; P630-TMR 111.111 nM): 0.2531
BRET ratio, Non-specific (Mean) ([2]; P630-TMR 1000 nM): 0.3233
BRET ratio, Non-specific (Mean) ([2]; P630-TMR 3000 nM): 0.4914
BRET ratio, Non-specific (Mean) ([2]; P630-TMR […]): 0.2709
BRET ratio with non-specific binding subtracted (Mean) ([2]; P630-TMR 0.457247 nM): 0.01279
BRET ratio with non-specific binding subtracted (Mean) ([2]; P630-TMR 1.37174 nM): 0.03163
BRET ratio with non-specific binding subtracted (Mean) ([2]; P630-TMR 4.11523 nM): 0.07414
BRET ratio with non-specific binding subtracted (Mean) ([2]; P630-TMR 12.3457 nM): 0.203
BRET ratio with non-specific binding subtracted (Mean) ([2]; P630-TMR 37.037 nM): 0.4147
BRET ratio with non-specific binding subtracted (Mean) ([2]; P630-TMR 111.111 nM): 0.7498
BRET ratio with non-specific binding subtracted (Mean) ([2]; P630-TMR 1000 nM): 1.0032
BRET ratio with non-specific binding subtracted (Mean) ([2]; P630-TMR 3000 nM): 1.107
% maximum BRET ratio / % of P630-TMR specific Bmax (Mean) ([2]; P630-TMR 0.457247 nM): 1.58%
% maximum BRET ratio / % of P630-TMR specific Bmax (Mean) ([2]; P630-TMR 1.37174 nM): 3.558%
% maximum BRET ratio / % of P630-TMR specific Bmax (Mean) ([2]; P630-TMR 4.11523 nM): 8.249%
% maximum BRET ratio / % of P630-TMR specific Bmax (Mean) ([2]; P630-TMR 12.3457 nM): 22.4565%
% maximum BRET ratio / % of P630-TMR specific Bmax (Mean) ([2]; P630-TMR 37.037 nM): 45.1459%
% maximum BRET ratio / % of P630-TMR specific Bmax (Mean) ([2]; P630-TMR 111.111 nM): 80.9844%
% maximum BRET ratio / % of P630-TMR specific Bmax (Mean) ([2]; P630-TMR 1000 nM): 106.516%
% maximum BRET ratio / % of P630-TMR specific Bmax (Mean) ([2]; P630-TMR 3000 nM): 100.024%
Mean NanoBRET binding signal (Figure 7 panel b) ([2]; [P630-TMR] 0.8 nM): -0.0001896
Mean NanoBRET binding signal (Figure 7 panel b) ([2]; [P630-TMR] 4 nM): 0.1611
Mean NanoBRET binding signal (Figure 7 panel b) ([2]; [P630-TMR] 20 nM): 0.6859
Mean NanoBRET binding signal (Figure 7 panel b) ([2]; [P630-TMR] 100 nM): 1.691
Mean NanoBRET binding signal (Figure 7 panel b) ([2]; [P630-TMR] 500 nM): 2.556
Mean NanoBRET binding signal (Figure 7 panel b) ([2]; [P630-TMR] 2000 nM): 2.7354
Kd ([2]; NL-IL23R and IL12Rβ1, mean ± SEM): 51.1 ± 7.3 nM

From publication PMC10199020 (Nature Communications, 2023)
